Data: ChEMBL document CHEMBL5291721, “A preclinical secondary pharmacology resource illuminates target-adverse drug reaction associations of marketed drugs” (Nat Commun, 2023)

Experiments:
Mu-type opioid receptor = Mu-type opioid receptor (Homo sapiens, UniProt P35372)
Estrogen receptor = target: T1, Estrogen receptor (Homo sapiens, UniProt P03372)
T1 sequence (P03372 whole entry): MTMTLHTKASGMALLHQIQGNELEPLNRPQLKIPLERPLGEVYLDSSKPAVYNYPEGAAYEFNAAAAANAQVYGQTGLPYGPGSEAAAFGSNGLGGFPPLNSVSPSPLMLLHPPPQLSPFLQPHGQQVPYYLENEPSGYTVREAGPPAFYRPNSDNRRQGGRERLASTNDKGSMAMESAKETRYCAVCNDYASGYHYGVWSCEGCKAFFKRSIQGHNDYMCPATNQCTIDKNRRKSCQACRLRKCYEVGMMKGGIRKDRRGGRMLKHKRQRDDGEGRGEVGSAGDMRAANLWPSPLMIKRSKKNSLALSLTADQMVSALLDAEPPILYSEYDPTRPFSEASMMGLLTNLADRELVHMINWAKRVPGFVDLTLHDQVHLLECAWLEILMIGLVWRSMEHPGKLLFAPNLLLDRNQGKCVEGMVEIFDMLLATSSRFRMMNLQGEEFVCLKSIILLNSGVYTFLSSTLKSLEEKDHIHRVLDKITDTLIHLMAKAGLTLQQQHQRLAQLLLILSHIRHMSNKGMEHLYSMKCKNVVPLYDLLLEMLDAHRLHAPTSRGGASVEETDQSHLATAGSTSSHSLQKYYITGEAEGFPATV

Acetylcholinesterase = Acetylcholinesterase (Homo sapiens, UniProt P22303); type: functional
Thromboxane A2 receptor [1] = target: T2, Thromboxane A2 receptor (Homo sapiens, UniProt P21731); type: functional, cell-based
T2 sequence (P21731 whole entry): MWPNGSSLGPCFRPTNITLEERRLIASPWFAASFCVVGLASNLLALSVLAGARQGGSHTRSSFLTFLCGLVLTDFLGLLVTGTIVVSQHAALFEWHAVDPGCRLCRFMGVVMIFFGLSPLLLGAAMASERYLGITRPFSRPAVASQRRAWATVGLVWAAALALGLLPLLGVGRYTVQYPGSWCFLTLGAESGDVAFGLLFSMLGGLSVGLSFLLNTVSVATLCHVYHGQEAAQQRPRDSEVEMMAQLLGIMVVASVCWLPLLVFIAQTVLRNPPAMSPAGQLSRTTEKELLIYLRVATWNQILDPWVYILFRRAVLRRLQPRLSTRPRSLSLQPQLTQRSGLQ

[2] = target: Sodium-dependent dopamine transporter (Homo sapiens, UniProt Q01959)
[3] = target: Voltage-gated inwardly rectifying potassium channel KCNH2 (Homo sapiens, UniProt Q12809); type: functional; conditions: read-out: AC50
Thromboxane A2 receptor [4] = target: T2, Thromboxane A2 receptor; type: functional, cell-based; remark: listed apart in the source
[5] = target: 5-hydroxytryptamine receptor 2B (Homo sapiens, UniProt P41595); type: functional, cell-based
[6] = target: T3, Prostaglandin G/H synthase 1 (Homo sapiens, UniProt P23219); type: functional
[7] = target: T4, Alpha-1A adrenergic receptor (Homo sapiens, UniProt P35348); type: functional, cell-based
T4 sequence (P35348 whole entry): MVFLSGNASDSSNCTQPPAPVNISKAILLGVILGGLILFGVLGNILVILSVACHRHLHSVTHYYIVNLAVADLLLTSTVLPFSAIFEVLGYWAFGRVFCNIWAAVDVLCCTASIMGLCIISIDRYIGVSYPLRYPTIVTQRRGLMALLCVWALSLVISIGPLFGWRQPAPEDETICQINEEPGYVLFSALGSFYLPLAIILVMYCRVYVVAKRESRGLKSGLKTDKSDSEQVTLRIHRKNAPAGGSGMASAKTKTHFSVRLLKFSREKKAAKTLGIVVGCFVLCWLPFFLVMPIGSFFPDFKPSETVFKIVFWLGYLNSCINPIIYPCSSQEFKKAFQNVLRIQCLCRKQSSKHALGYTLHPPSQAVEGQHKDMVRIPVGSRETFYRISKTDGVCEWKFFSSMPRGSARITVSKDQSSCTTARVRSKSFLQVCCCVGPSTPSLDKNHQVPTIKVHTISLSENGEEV

[8] = target: cGMP-inhibited 3',5'-cyclic phosphodiesterase 3A (Homo sapiens, UniProt Q14432); type: functional
Adenosine receptor A3 = target: T5, Adenosine receptor A3 (Homo sapiens, UniProt P0DMS8)
T5 sequence (P0DMS8 whole entry): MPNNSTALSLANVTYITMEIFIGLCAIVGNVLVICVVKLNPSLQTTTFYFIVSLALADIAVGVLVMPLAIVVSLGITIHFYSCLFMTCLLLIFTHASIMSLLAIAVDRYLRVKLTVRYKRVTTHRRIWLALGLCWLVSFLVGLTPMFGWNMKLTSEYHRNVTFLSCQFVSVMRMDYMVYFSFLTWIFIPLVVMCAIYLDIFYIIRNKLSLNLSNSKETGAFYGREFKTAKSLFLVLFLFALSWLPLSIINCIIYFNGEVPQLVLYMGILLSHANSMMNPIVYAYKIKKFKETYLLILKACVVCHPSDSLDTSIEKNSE

[9] = target: T3, Prostaglandin G/H synthase 1; type: functional; remark: listed apart in the source
D(3) dopamine receptor = D(3) dopamine receptor (Homo sapiens, UniProt P35462)
Prothrombin = Prothrombin (Homo sapiens, UniProt P00734); type: functional
[10] = target: T6, Amine oxidase [flavin-containing] A (Homo sapiens, UniProt P21397); type: functional
T6 sequence (P21397 whole entry): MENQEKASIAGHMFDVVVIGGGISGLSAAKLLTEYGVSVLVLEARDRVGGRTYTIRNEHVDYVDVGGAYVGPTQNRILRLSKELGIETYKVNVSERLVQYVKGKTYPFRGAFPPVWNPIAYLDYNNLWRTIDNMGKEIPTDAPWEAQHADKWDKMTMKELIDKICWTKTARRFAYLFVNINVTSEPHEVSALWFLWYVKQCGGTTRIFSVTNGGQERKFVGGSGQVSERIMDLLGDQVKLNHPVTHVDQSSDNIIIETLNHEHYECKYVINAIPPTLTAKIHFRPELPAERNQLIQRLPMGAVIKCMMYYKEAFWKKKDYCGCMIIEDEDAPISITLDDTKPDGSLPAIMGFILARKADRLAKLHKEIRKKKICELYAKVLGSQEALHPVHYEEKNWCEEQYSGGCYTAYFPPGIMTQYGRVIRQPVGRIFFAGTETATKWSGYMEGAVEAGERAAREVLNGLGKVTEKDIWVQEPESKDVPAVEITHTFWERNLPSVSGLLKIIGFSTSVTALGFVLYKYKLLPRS
Also: assay procedure not described here.

Chain of Sodium-dependent dopamine transporter (Q01959 whole entry): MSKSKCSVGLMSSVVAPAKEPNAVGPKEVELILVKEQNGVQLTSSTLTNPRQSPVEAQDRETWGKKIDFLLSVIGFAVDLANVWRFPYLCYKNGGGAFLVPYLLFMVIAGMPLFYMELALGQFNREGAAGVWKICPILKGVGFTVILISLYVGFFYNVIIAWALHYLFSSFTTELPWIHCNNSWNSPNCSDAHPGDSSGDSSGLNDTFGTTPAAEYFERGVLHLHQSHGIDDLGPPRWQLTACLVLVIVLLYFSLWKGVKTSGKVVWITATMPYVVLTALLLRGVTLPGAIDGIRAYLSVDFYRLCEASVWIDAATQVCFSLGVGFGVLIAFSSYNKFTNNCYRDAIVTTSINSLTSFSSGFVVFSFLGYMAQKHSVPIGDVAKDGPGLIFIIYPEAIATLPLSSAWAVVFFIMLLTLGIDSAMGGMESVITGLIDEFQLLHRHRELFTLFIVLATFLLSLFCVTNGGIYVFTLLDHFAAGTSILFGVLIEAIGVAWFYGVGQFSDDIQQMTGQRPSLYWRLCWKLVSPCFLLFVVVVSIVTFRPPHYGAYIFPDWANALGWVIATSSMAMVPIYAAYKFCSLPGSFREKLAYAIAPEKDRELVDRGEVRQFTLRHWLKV
Chain of D(3) dopamine receptor (P35462 whole entry): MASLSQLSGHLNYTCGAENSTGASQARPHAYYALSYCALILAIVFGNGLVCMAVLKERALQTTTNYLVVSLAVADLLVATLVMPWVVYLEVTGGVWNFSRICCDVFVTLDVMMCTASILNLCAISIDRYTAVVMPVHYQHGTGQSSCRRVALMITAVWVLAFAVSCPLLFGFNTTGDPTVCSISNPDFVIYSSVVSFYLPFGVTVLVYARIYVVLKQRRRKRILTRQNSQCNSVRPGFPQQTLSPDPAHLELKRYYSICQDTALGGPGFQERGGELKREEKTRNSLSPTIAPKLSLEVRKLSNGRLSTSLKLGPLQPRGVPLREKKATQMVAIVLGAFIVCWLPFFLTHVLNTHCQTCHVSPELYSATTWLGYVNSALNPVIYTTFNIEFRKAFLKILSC
Chain of Voltage-gated inwardly rectifying potassium channel KCNH2 (Q12809 whole entry): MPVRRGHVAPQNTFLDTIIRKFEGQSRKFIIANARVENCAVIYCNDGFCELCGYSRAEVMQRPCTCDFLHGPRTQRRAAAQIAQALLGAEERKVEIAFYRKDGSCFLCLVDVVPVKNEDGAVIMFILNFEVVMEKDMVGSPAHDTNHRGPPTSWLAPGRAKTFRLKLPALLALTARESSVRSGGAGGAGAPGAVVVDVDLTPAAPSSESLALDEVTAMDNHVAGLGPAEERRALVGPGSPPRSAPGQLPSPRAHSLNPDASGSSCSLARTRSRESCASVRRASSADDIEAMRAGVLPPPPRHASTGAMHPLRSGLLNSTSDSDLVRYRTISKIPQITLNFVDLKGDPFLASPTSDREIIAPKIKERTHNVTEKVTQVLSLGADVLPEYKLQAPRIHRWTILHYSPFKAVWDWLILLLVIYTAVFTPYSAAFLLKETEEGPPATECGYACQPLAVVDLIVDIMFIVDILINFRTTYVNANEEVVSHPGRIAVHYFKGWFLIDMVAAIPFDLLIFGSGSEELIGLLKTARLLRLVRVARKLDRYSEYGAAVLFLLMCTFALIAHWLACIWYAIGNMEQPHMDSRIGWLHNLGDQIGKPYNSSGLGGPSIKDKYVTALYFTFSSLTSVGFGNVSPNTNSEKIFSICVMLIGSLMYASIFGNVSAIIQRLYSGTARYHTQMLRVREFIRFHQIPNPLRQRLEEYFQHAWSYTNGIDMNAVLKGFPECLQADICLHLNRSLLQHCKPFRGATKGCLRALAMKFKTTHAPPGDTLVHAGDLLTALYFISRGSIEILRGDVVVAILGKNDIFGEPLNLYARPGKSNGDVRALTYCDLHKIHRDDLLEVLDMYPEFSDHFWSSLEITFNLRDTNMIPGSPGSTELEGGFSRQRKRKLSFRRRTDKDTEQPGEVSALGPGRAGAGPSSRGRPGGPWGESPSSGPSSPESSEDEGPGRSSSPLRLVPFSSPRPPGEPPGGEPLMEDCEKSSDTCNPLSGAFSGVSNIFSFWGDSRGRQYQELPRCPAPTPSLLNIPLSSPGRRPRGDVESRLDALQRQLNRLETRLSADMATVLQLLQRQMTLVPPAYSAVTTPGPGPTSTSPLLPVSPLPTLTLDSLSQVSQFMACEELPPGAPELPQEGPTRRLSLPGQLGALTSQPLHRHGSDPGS
Chain of cGMP-inhibited 3',5'-cyclic phosphodiesterase 3A (Q14432 whole entry): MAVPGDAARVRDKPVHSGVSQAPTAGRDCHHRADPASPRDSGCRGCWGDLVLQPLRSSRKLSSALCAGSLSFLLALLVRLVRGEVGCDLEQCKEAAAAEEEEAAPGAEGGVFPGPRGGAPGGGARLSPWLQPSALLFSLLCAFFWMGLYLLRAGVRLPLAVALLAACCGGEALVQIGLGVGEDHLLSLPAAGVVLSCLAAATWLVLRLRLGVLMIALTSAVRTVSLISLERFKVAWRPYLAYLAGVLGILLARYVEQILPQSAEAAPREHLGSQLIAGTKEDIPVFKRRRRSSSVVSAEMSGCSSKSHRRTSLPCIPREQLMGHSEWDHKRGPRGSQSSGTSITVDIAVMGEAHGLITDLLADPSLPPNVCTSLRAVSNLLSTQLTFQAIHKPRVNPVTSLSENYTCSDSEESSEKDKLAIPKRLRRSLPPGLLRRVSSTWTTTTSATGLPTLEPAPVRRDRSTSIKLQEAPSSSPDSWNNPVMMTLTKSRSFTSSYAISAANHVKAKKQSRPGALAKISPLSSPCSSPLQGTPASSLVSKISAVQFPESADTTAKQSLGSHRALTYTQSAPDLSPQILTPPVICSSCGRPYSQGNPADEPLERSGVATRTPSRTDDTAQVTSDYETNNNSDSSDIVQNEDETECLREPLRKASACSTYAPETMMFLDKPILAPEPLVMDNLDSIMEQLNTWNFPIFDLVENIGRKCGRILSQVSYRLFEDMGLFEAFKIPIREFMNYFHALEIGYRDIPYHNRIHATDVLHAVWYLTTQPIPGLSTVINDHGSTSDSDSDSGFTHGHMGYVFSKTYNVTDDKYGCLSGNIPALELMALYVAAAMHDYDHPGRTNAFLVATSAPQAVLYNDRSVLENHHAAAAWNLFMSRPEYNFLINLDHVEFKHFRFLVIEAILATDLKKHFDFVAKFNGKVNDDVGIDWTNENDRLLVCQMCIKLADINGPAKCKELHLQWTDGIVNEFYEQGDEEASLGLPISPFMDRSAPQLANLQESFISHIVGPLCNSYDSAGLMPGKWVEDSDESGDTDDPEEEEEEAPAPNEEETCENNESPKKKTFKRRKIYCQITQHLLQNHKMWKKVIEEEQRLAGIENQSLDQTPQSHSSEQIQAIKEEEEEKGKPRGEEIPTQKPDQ
Chain of Acetylcholinesterase (P22303 whole entry): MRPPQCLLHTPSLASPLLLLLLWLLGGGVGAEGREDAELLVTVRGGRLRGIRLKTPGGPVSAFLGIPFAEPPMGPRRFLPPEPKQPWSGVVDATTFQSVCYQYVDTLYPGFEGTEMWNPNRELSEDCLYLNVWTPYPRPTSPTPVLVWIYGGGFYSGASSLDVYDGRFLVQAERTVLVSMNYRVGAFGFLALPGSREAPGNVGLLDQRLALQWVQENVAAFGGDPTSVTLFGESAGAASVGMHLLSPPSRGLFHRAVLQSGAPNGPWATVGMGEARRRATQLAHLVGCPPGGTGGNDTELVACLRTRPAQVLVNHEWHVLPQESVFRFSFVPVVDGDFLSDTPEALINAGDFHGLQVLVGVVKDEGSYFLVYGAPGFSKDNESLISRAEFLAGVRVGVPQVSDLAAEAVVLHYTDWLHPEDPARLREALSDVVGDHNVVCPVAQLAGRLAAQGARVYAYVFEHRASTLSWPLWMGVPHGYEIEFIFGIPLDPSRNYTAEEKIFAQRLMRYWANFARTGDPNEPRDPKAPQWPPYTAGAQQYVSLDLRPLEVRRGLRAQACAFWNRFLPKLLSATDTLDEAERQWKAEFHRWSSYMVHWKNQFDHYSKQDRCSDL
T3 sequence (P23219 whole entry): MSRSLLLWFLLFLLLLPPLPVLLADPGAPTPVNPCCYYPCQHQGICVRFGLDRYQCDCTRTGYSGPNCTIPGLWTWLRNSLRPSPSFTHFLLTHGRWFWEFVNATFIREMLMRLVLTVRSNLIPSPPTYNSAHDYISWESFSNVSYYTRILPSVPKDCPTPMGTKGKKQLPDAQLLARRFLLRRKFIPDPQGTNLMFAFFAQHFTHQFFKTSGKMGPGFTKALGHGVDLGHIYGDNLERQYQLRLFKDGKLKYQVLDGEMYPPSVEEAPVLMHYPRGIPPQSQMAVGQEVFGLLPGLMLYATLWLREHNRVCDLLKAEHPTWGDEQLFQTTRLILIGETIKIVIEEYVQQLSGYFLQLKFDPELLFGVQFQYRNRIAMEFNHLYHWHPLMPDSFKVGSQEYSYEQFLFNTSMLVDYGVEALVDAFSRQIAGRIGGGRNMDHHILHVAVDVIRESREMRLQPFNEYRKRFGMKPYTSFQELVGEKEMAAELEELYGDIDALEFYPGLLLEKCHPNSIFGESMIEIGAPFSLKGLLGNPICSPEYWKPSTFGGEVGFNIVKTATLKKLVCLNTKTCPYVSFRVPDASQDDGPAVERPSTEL
Chain of 5-hydroxytryptamine receptor 2B (P41595 whole entry): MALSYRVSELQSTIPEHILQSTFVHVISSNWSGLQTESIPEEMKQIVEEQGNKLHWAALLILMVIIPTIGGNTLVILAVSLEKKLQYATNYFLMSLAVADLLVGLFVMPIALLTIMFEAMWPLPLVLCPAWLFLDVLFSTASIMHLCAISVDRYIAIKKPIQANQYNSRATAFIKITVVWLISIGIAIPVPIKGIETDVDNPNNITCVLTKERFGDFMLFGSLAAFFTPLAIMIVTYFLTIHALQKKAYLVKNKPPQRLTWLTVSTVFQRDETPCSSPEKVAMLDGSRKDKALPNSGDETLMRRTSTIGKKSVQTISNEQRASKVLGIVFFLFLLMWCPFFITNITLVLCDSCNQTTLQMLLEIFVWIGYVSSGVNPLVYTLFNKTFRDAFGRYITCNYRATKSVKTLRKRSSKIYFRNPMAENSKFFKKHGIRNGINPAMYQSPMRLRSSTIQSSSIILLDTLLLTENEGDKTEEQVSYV

Compound: CC/C=C\C/C=C\C/C=C\C/C=C\C/C=C\CCCC(=O)O [ICOSAPENT]
- AC50 (Mu-type opioid receptor): > 30 µM
- AC50 (Estrogen receptor): > 30 µM
- AC50 (Acetylcholinesterase): > 30 µM
- AC50 (Thromboxane A2 receptor [1]): > 30 µM
- AC50 [2]: > 30 µM
- AC50 [3]: > 30 µM
- AC50 (Thromboxane A2 receptor [4]): > 30 µM
- AC50 [5]: > 30 µM
- AC50 [6]: > 10 µM
- AC50 [7]: > 30 µM
- AC50 [8]: > 30 µM
- AC50 (Adenosine receptor A3): 25.3 µM
- AC50 [9]: 9.84 µM
- AC50 (D(3) dopamine receptor): > 30 µM
- AC50 (Prothrombin): > 30 µM
- AC50 [10]: > 30 µM

Compound: Oc1c(I)cc(I)c2cccnc12 [IODOQUINOL]
- AC50 (Mu-type opioid receptor): 8.91 µM
- AC50 (Estrogen receptor): > 30 µM
- AC50 (Acetylcholinesterase): > 30 µM
- AC50 (Thromboxane A2 receptor [1]): > 30 µM
- AC50 [2]: > 30 µM
- AC50 [3]: > 30 µM
- AC50 (Thromboxane A2 receptor [4]): > 30 µM
- AC50 [5]: > 30 µM
- AC50 [6]: > 30 µM
- AC50 [7]: > 30 µM
- AC50 [8]: 3.36 µM
- AC50 (Adenosine receptor A3): > 3 µM
- AC50 [9]: > 30 µM
- AC50 (D(3) dopamine receptor): > 30 µM
- AC50 (Prothrombin): > 30 µM
- AC50 [10]: > 30 µM

Compound: CCC(Cc1c(I)cc(I)c(N)c1I)C(=O)O (configuration not stated) [IOPANOIC ACID]
- AC50 (Mu-type opioid receptor): > 30 µM
- AC50 (Estrogen receptor): > 30 µM
- AC50 (Acetylcholinesterase): > 30 µM
- AC50 (Thromboxane A2 receptor [1]): 14.4 µM
- AC50 [2]: > 30 µM
- AC50 [3]: > 30 µM
- AC50 (Thromboxane A2 receptor [4]): > 30 µM
- AC50 [5]: > 30 µM
- AC50 [6]: > 30 µM
- AC50 [7]: 24.2 µM
- AC50 [8]: > 30 µM
- AC50 (Adenosine receptor A3): > 30 µM
- AC50 [9]: > 30 µM
- AC50 (D(3) dopamine receptor): > 30 µM
- AC50 (Prothrombin): > 30 µM
- AC50 [10]: > 30 µM

Compound: O=C(NC1CCN(CCCCC2(C(=O)NCC(F)(F)F)c3ccccc3-c3ccccc32)CC1)c1ccccc1-c1ccc(C(F)(F)F)cc1 [LOMITAPIDE]
- AC50 (Mu-type opioid receptor): 4.02 µM
- AC50 (Estrogen receptor): > 30 µM
- AC50 (Acetylcholinesterase): > 30 µM
- AC50 (Thromboxane A2 receptor [1]): > 1 µM
- AC50 [2]: 0.239 µM
- AC50 [3]: 0.86 µM
- AC50 (Thromboxane A2 receptor [4]): 8.46 µM
- AC50 [5]: > 30 µM
- AC50 [6]: 23.2 µM
- AC50 [7]: 2.4 µM
- AC50 [8]: > 30 µM
- AC50 (Adenosine receptor A3): 4.4 µM
- AC50 [9]: > 30 µM
- AC50 (D(3) dopamine receptor): 1.76 µM
- AC50 (Prothrombin): > 30 µM
- AC50 [10]: > 30 µM

Compound: Nc1nc2c(ncn2CCC(CO)CO)c(=O)[nH]1 [PENCICLOVIR]
- AC50 (Mu-type opioid receptor): > 30 µM
- AC50 (Estrogen receptor): > 30 µM
- AC50 (Acetylcholinesterase): > 30 µM
- AC50 (Thromboxane A2 receptor [1]): > 30 µM
- AC50 [2]: > 30 µM
- AC50 [3]: > 30 µM
- AC50 (Thromboxane A2 receptor [4]): > 30 µM
- AC50 [5]: > 30 µM
- AC50 [6]: > 30 µM
- AC50 [7]: > 30 µM
- AC50 [8]: > 30 µM
- AC50 (Adenosine receptor A3): > 30 µM
- AC50 [9]: > 30 µM
- AC50 (D(3) dopamine receptor): > 30 µM
- AC50 (Prothrombin): > 30 µM
- AC50 [10]: > 30 µM

Compound: CN1CCC2=C(C1)c1ccccc1Cc1ccccc12 [SETIPTILINE]
- AC50 (Mu-type opioid receptor): 12.8 µM
- AC50 (Estrogen receptor): > 30 µM
- AC50 (Acetylcholinesterase): > 30 µM
- AC50 (Thromboxane A2 receptor [1]): > 30 µM
- AC50 [2]: 24.1 µM
- AC50 [3]: 13 µM
- AC50 (Thromboxane A2 receptor [4]): > 30 µM
- AC50 [5]: > 30 µM
- AC50 [6]: > 30 µM
- AC50 [7]: 0.231 µM
- AC50 [8]: > 30 µM
- AC50 (Adenosine receptor A3): > 30 µM
- AC50 [9]: > 30 µM
- AC50 (D(3) dopamine receptor): 0.543 µM
- AC50 (Prothrombin): > 30 µM
- AC50 [10]: > 30 µM

Compound: COc1ccc(CCC(C)NCC(O)c2ccc(O)c([S+](C)[O-])c2)cc1 (configuration not stated) [SULFINALOL]
- AC50 (Mu-type opioid receptor): > 30 µM
- AC50 (Estrogen receptor): > 30 µM
- AC50 (Acetylcholinesterase): > 30 µM
- AC50 (Thromboxane A2 receptor [1]): > 30 µM
- AC50 [2]: > 30 µM
- AC50 [3]: > 30 µM
- AC50 (Thromboxane A2 receptor [4]): > 30 µM
- AC50 [5]: > 30 µM
- AC50 [6]: > 30 µM
- AC50 [7]: 20.3 µM
- AC50 [8]: > 30 µM
- AC50 (Adenosine receptor A3): > 30 µM
- AC50 [9]: > 30 µM
- AC50 (D(3) dopamine receptor): > 30 µM
- AC50 (Prothrombin): > 30 µM
- AC50 [10]: > 30 µM
